Values quoted from earlier work in patent US20080226715A1, “THERAPEUTIC COMPOSITIONS AND METHODS” (priority 2007, published 2008).

Legend:
[1] = in vivo
[2] = after oral dosing; normal subjects

| bioavailability [1] | pharmacokinetics half-life [1] | time of peak plasma concentrations [2] | SMILES |
| --- | --- | --- | --- |
| 95% | 42 to 50 h |  | O=C(O)CCc1nc(-c2ccccc2)c(-c2ccccc2)o1 [Oxaprozin] |
|  |  | about 1 hour | CC(=O)Nc1ccc(O)cc1 [acetaminophen] |
|  |  | about 1 hour | CC(=O)Oc1ccccc1C(=O)O [aspirin] |
